Source: patent US5554641A, “Nonpeptides as tachykinin antagonists” (priority 1995, dated 1996)

These molecules were tested against T1, human NK3 receptor (Homo sapiens, UniProt P29371) (assay: In vitro human NK3 receptor binding assay ([125I]-[MePhe7]neurokinin B, CHO cell membranes)).
T1 construct: expressed in transfected cells; host or cells: CHO cell membranes
T1 sequence (P29371 1-465): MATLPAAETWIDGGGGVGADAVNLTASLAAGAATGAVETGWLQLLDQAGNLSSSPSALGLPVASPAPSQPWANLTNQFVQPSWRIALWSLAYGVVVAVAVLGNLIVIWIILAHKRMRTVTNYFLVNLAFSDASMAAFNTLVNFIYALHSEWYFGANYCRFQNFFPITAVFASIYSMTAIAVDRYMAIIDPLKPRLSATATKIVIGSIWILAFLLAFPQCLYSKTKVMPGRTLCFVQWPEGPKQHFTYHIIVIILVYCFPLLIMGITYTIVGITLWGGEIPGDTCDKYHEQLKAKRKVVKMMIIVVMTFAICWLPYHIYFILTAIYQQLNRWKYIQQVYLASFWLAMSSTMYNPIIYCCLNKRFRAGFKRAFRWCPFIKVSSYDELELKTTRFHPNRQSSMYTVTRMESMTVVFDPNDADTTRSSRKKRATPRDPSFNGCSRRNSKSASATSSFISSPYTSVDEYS

Structure (SMILES) | IC50 [nM]
CC(C)[C@H](OC(=O)NC(C)(Cc1cc2ccccc2o1)C(=O)NCCCCCCCNC(N)=O)c1ccccc1 (single isomer, unassigned) [Example 10] | 91
CC(C)C(OC(=O)N[C@](C)(Cc1ccccc1)C(=O)NCCCCCCCCC(N)=O)c1ccc(Cl)cc1 (stereo partly shown) [Example 2, Carbamic acid, [2-[(9-amino-9-oxononyl)amino]-1-methyl-2-oxo-1-(phenylmethyl)ethyl]-, 1-(4-chlorophenyl)-2-methylpropyl ester] | 258
CC1(C)CCc2ccccc2C1OC(=O)N[C@](C)(Cc1ccccc1)C(=O)NCCCCCCCCC(N)=O (stereo partly shown) [Example 4, [1-(8-Carbamoyl-octylcarbamoyl)-1-methyl-2-phenyl-ethyl]-carbamic acid 2,2-dimethyl-1,2,3,4-tetrahydro-naphthalen-1-yl ester] | 102
CC1(C)CCCc2ccccc2C1OC(=O)N[C@](C)(Cc1ccccc1)C(=O)NCCCCCCCCC(N)=O (stereo partly shown) [Example 6, [1-(8-Carbamoyl-octylcarbamoyl)-1-methyl-2-phenyl-ethyl]-carbamic acid 6,6-dimethyl-6,7,8,9-tetrahydro-5H-benzocyclohepten-5-yl ester] | 61
CC(C)[C@H](OC(=O)N[C@](C)(Cc1ccccc1)C(=O)N[C@@H](Cc1ccc(O)cc1)C(=O)NCCCCCCO)c1ccccc1 [Example 12, {1-[1-(6-Hydroxy-hexylcarbamoyl)-2-(4-hydroxy-phenyl)-ethylcarbamoyl]-1-methyl-2-phenyl-ethyl}-carbamic acid 2-methyl-1-phenyl-propyl ester] | 15
CC(C)[C@H](OC(=O)N[C@](C)(Cc1ccccc1)C(=O)N[C@@H](Cc1ccc(O)cc1)C(=O)NCCCCCCCO)c1ccccc1 [Example 13, {1-[1-(7-Hydroxy-heptylcarbamoyl)-2-(4-hydroxy-phenyl)-ethylcarbamoyl]-1-methyl-2-phenyl-ethyl}-carbamic acid 2-methyl-1-phenyl-propyl ester] | 12
CC(C)[C@@H](OC(=O)N[C@](C)(Cc1ccccc1)C(=O)NC(C)(C)c1ccccc1)c1ccccc1 [Example 15, [1-Methyl-1-(1-methyl-1-phenyl-ethylcarbamoyl)-2-phenyl-ethyl]-carbamic acid 2-methyl-1-phenyl-propyl ester] | 114
CC(C)[C@@H](OC(=O)N[C@](C)(Cc1ccccc1)C(=O)N[C@@H](CO)c1ccccc1)c1ccccc1 [Example 16, [1-(2-Hydroxy-1-phenyl-ethylcarbamoyl)-1-methyl-2-phenyl-ethyl]-carbamic acid 2-methyl-1-phenyl-propyl ester] | 94
CC(C)C(OC(=O)N[C@](C)(Cc1ccccc1)C(=O)N[C@@H](C)c1ccccc1)c1ccc(F)cc1 (stereo partly shown) [Example 17, [1-Methyl-2-phenyl-1-(1-phenyl-ethylcarbamoyl)-ethyl]-carbamic acid 1-(4-fluoro-phenyl)-2-methyl-propyl ester] | 982

The next lines start with the values.

IC50 [nM] | Structure (SMILES)
52 | CC(C)[C@H](OC(=O)N[C@](C)(Cc1ccccc1)C(=O)NCCCCCCCCC(N)=O)c1ccccc1 [Example 1, Carbamic acid, [2-[(9-amino-9-oxononyl)amino]-1-methyl-2-oxo-1-(phenylmethyl)ethyl]-, 2-methyl-1-phenylpropyl ester, [R-(R*,S*)]-]
40 | C[C@](Cc1ccccc1)(NC(=O)OC(c1ccccc1)C1CCCC1)C(=O)NCCCCCCCCC(N)=O (stereo partly shown) [Example 3, [1-(8-Carbamoyl-octylcarbamoyl)-1-methyl-2-phenyl-ethyl]-carbamic acid cyclopentyl-phenyl-methyl ester]
18 | C[C@](Cc1ccccc1)(NC(=O)OC1CCCCc2ccccc21)C(=O)NCCCCCCCCC(N)=O (stereo partly shown) [Example 5, [1-(8-Carbamoyl-octylcarbamoyl)-1-methyl-2-phenyl-ethyl]-carbamic acid 6,7,8,9-tetrahydro-5H-benzocyclohepten-5-yl ester]
30 | CC(C)C(OC(=O)NC(C)(Cc1cccc(F)c1F)C(=O)NCCCOCCCNC(N)=O)c1ccccc1 (stereo not shown) [Example 11, {2-(2,3-Difluoro-phenyl}-1-methyl-1-[3-{3-ureido-propoxy)-propylcarbamoyl]-ethyl}-carbamic acid 2-methyl-1-phenyl-propyl ester]
